Several values for one entry are separate records, joined by “and”; a condition that tells them apart may be missing. Identical values can stand only once.
Columns and labels:
Assay type in all cases: biochemical
[1] = target: T1, mAC3 (Homo sapiens, UniProt O60266); assay: AC assay, Gsα-stimulated mAC3 in membranes from transfected HEK293 cells; settings: for Effect of lipid on 300 nM Gsα-stimulated mAC3: 20 µM, in words; for mAC3 activity [%] (100% = 300nM Gsα stimulation): individual experiments
T1 construct: Human mAC genes were from GenScript and fitted with a C-terminal FLAG-tag; FLAG (C); made in house; host or cells: HEK293, permanently transfected; membrane preparation
Experimental: (§1) hAC sequences were from NCBI were: ADCY1: NM_021116.3; ADCY2: NM_020546.2; ADCY3: NM_004036.4; ADCY4: NM_001198568.2; ADCY5: NM_183357.2; ADCY6: NM_015270.4; ADCY7: NM_001114.4; ADCY8: NM_001115.2; ADCY9: NM_001116.3. Human mAC genes were from GenScript and fitted with a C-terminal FLAG-tag. […] The gene was synthesized by GenScript. HEK293 cells were maintained in Dulbeccos Modified Eagle Medium (DMEM) with 10% fetal bovine serum at 37°C and 5% CO2. Transfection with AC plasmids was with PolyJet (SignaGen, Frederick, MD, USA). Permanent cell lines were generated by selection for 7 days with 600 µg/ml G418 and maintained with 300 µg/ml For membrane preparation, cells were tyrpsinized, collected by centrifugation (3000 × g, 5 min) and lysed and homogenized in 20 mM HEPES, pH 7.5, 1 mM Ethylenediaminetetraacetic acid (EDTA), 2 mM MgCl2, 1 mM Dithiothreitol (DTT), one tablet of cOmplete, EDTA-free (per 50 ml) and 250 mM sucrose by 20 strokes in a potter homogenizer on ice. Debris was removed (5 min at 1000 × g, 0°C), membranes were collected at 100,000 × g, 60 min at 0°C, suspended and stored at −80°C in 20 mM MOPS, pH 7.5, 0.5 mM EDTA, 2 mM MgCl2. […] Three cerebral cortices were dissected and homogenized in 4.5 ml cold 48 mM Tris–HCl, pH 7.4, 12 mM MgC1_2, and 0.1 mM Ethylene glycol-bis(β-aminoethyl ether)-N,N,N′,N′-tetraacetic acid (EGTA) with a Polytron hand disperser (Kinematica AG, Switzerland). […] The pellet was washed once with 5 ml 1 mM KHCO3. The final suspension in 2 ml 1 mM KHCO3 was stored in aliquots at −80°C.
(§2) In a volume of 10 μl, AC activities were measured using 1 mM ATP, 2 mM MgCl2, 3 mM creatine phosphate, 60 μg/ml creatine kinase, and 50 mM MOPS pH 7.5. The cAMP assay kit from Cisbio (Codolet, France) was used for detection according to the supplier’s instructions. For each assay, a cAMP standard curve was established. EC50 and IC50 values were calculated by GraphPad Prism version 8.4.3 for Windows, GraphPad Software, San Diego, CA, USA, https://www.graphpad.com .

[2] = target: T2, mAC2 (Homo sapiens, UniProt Q08462); assay: AC assay, Gsα-stimulated mAC2 in membranes from transfected HEK293 cells; settings: Figure 5-figure supplement 1 left, 20 µM
T2 construct: Human mAC genes were from GenScript and fitted with a C-terminal FLAG-tag; FLAG (C); made in house; host or cells: HEK293, permanently transfected; membrane preparation
Experimental: as §1, §2

[3] = target: T3, mAC1 (Homo sapiens, UniProt Q08828); assay: AC assay, Gsα-stimulated mAC1 in membranes from transfected HEK293 cells; settings: for mAC1 activity [%] (100% = 300nM Gsα stimulation); 20µM fatty acid concentration: single experiments
T3 construct: Human mAC genes were from GenScript and fitted with a C-terminal FLAG-tag; FLAG (C); made in house; host or cells: HEK293, permanently transfected; membrane preparation
Experimental: as §1, §2

[4] = target: T4, mAC4 (Homo sapiens, UniProt Q8NFM4); assay: AC assay, Gsα-stimulated mAC4 in membranes from transfected HEK293 cells; settings: for mAC4 activity [%] (100% = 300nM Gsα stimulation); 20µM fatty acid concentration: single experiments
T4 construct: Human mAC genes were from GenScript and fitted with a C-terminal FLAG-tag; FLAG (C); made in house; host or cells: HEK293, permanently transfected; membrane preparation
T4 sequence (Q8NFM4 1-1077): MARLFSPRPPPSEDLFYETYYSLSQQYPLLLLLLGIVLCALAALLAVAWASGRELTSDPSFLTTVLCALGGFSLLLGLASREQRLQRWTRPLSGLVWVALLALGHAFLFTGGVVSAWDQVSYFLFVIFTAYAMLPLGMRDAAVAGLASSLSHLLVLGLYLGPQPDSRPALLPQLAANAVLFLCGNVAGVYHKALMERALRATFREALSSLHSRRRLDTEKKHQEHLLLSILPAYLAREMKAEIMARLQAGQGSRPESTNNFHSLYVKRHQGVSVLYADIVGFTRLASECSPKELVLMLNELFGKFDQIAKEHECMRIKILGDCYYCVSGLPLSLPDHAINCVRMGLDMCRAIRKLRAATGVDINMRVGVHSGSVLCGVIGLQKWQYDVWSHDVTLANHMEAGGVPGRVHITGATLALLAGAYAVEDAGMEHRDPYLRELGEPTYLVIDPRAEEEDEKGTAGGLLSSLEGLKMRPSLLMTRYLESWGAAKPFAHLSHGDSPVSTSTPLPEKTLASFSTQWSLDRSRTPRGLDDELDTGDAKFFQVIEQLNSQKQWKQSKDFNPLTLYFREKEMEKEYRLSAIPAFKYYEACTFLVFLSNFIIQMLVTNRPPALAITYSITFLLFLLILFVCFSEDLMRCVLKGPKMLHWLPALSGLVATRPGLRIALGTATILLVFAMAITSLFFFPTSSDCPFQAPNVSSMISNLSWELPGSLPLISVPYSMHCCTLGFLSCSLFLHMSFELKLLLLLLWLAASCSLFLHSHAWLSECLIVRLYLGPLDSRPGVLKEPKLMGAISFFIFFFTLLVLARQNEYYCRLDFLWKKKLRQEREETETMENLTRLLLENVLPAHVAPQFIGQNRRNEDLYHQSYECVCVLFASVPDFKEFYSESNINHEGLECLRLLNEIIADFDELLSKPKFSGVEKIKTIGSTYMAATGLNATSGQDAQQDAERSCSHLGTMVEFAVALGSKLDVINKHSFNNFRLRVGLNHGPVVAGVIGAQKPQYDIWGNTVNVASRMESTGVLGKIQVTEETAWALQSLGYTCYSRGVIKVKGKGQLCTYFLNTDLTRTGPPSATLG
Experimental: as §1, §2

[5] = target: T5, mAC6 (Homo sapiens, UniProt O43306); assay: AC assay, Gsα-stimulated mAC6 in membranes from transfected HEK293 cells; settings: 20µM fatty acid concentration
T5 construct: Human mAC genes were from GenScript and fitted with a C-terminal FLAG-tag; FLAG (C); made in house; host or cells: HEK293, permanently transfected; membrane preparation
Experimental: as §1, §2

[6] = target: T6, mAC5 (Homo sapiens, UniProt O95622); assay: AC assay, Gsα-stimulated mAC5 in membranes from transfected HEK293 cells
T6 construct: Human mAC genes were from GenScript and fitted with a C-terminal FLAG-tag; FLAG (C); made in house; host or cells: HEK293, permanently transfected; membrane preparation
Experimental: as §1, §2

[7] = target: T7, mAC9 (Homo sapiens, UniProt O60503); assay: AC assay, Gsα-stimulated mAC9 in membranes from transfected HEK293 cells; settings: for mAC9 activity (%);(100% = Gsα stimulation) stimulated by 300nM Gsα / mAC9 activity [%] (100% = 300nM Gsα stimulation); 20µM fatty acid concentration: single experiments; for EC50: enhancement of 300 nM Gsα-stimulated activity, read-out: EC50 for mAC9
T7 construct: Human mAC genes were from GenScript and fitted with a C-terminal FLAG-tag; FLAG (C); made in house; host or cells: HEK293, permanently transfected; membrane preparation
Experimental: as §1, §2

[8] = target: T8, mAC7 (Homo sapiens, UniProt P51828); assay: AC assay, Gsα-stimulated mAC7 in membranes from transfected HEK293 cells; settings: for mAC7 activity [%] (100% = 300nM Gsα stimulation); 20µM fatty acid concentration: Figure 5-figure supplement 2 left
T8 construct: Human mAC genes were from GenScript and fitted with a C-terminal FLAG-tag; FLAG (C); made in house; host or cells: HEK293, permanently transfected; membrane preparation
Experimental: as §1, §2

[9] = enhancement of 300 nM Gsα-stimulated activity

T5 sequence (O43306 whole entry): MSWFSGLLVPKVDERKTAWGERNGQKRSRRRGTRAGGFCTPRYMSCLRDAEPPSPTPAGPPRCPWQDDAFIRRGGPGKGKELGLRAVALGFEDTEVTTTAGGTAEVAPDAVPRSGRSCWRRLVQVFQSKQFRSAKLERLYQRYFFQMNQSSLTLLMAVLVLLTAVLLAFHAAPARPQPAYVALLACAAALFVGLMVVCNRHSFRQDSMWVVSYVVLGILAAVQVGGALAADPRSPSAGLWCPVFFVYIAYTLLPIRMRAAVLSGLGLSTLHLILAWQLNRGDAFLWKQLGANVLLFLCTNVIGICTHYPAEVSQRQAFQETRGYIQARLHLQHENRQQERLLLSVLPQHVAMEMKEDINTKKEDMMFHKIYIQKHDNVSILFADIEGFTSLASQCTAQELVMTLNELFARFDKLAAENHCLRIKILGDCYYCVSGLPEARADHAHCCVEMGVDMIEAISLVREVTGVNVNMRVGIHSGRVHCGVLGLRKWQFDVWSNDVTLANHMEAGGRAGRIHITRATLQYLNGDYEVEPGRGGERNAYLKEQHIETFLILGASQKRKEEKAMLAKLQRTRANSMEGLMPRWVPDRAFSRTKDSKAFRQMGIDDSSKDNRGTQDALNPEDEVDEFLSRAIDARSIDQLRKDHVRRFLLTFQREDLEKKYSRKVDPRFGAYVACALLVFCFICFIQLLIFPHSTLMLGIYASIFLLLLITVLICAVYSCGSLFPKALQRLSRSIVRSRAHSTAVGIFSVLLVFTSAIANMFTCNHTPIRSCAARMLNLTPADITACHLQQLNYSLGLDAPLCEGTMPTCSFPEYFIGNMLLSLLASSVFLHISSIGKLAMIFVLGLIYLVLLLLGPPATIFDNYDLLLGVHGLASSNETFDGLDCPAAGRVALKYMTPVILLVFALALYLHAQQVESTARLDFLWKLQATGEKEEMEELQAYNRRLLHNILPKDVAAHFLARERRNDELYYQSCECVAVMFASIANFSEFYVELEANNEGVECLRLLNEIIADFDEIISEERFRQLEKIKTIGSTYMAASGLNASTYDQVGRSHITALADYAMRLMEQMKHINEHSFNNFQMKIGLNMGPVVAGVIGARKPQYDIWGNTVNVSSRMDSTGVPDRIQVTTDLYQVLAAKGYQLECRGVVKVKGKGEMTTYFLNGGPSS
T1 sequence (O60266 whole entry): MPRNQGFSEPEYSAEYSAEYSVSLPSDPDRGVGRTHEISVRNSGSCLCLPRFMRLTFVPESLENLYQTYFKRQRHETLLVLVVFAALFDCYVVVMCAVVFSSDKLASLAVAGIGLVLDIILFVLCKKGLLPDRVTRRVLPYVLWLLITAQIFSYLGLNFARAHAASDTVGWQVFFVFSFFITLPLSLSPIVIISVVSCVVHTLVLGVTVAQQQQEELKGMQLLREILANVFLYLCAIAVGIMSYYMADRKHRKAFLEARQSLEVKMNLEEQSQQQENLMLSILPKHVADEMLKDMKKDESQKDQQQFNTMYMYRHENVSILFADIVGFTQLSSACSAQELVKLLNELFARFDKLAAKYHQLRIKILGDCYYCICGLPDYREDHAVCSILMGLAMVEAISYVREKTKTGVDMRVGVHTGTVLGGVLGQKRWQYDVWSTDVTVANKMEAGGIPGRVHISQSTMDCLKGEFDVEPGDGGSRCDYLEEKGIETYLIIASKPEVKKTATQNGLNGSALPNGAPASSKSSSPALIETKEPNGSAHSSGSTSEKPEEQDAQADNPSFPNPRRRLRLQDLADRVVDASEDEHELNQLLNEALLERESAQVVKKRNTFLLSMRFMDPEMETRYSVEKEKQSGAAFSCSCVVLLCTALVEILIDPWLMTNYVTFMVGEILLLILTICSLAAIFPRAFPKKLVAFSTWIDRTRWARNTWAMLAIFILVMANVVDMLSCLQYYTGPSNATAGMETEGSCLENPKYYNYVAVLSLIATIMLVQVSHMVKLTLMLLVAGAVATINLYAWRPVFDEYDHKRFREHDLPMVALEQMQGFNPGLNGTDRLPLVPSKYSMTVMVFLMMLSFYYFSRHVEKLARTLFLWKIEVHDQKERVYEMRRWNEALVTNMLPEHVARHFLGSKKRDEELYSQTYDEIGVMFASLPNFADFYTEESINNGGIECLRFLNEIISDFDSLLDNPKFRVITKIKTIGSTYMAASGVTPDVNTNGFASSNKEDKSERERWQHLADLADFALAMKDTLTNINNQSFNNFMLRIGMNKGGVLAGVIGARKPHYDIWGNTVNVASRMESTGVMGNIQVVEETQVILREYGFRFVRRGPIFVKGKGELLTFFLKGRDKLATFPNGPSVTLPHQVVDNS
T1 sequence (P63092 whole entry Q227L partner): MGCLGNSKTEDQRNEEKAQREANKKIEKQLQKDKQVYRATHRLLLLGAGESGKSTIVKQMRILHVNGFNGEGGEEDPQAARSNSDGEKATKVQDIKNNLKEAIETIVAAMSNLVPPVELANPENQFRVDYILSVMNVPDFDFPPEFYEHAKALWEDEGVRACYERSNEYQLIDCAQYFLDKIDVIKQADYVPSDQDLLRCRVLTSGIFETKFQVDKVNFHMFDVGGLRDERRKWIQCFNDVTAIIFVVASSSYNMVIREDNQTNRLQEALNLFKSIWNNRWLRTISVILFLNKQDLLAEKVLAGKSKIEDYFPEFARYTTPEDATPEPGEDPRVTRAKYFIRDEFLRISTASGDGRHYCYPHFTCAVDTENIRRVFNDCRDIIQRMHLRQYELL
T8 sequence (P51828 whole entry): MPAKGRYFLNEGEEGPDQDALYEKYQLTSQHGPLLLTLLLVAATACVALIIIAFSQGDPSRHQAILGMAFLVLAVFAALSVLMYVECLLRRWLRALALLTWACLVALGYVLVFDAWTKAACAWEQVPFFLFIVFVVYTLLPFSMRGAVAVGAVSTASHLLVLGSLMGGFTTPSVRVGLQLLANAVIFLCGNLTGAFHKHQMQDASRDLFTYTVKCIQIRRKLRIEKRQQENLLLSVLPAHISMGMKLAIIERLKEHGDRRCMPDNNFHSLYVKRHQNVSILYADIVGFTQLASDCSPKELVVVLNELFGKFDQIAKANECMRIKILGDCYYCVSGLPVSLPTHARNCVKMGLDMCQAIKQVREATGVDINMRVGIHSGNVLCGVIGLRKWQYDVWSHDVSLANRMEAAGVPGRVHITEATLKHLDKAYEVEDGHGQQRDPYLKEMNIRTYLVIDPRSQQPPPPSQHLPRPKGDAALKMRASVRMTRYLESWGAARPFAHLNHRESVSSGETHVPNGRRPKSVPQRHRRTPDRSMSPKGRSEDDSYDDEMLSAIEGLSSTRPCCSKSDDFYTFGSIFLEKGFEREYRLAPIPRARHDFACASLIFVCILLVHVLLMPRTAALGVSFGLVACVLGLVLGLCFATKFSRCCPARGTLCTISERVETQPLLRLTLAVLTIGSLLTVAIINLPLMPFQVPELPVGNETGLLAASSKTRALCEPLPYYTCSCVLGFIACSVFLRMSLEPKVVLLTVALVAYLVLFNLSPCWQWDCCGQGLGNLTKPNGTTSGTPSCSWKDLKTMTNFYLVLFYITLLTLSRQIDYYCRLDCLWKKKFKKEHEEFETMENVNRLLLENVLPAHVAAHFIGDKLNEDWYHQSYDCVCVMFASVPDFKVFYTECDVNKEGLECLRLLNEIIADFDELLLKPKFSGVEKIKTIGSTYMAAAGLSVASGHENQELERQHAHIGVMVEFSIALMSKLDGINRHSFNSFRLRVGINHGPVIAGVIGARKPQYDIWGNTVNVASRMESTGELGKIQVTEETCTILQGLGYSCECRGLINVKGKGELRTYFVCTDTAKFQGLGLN
T8 sequence (P63092 2-394 Q227L partner): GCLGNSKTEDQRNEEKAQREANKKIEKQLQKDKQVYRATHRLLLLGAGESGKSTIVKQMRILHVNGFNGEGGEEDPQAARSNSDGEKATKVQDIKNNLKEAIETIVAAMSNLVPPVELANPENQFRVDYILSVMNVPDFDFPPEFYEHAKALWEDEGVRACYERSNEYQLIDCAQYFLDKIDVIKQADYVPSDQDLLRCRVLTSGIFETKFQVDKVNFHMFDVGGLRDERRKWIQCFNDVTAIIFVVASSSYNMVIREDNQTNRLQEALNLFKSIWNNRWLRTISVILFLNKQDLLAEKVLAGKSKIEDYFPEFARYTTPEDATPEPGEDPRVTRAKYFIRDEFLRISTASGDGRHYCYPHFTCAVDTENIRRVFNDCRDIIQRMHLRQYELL

Compound	Effect of lipid on 300 nM Gsα-stimulated mAC3 [1]	mAC3 activity [%] (100% = 300nM Gsα stimulation) ([1]; fatty acid 20 µM)	mAC2 activity [%] (100% = 300nM Gsα stimulation); 20µM fatty acid concentration [2]	mAC1 activity [%] (100% = 300nM Gsα stimulation); 20µM fatty acid concentration [3]	mAC4 activity [%] (100% = 300nM Gsα stimulation); 20µM fatty acid concentration [4]	mAC6 activity [%] (100% = 300nM Gsα stimulation) [5]	mAC5 activity [%] (100% = 300nM Gsα stimulation) ([6]; 20µM fatty acid concentration)	mAC7 activity [%] (100% = 300nM Gsα stimulation); 20µM fatty acid concentration [8]	mAC9 activity [%] (100% = 300nM Gsα stimulation); 20µM fatty acid concentration ([7]; 20 µM fatty acid)	further results
CC/C=C\C/C=C\C/C=C\CCCCCCCC(=O)O [Linolenic acid, Linolenic ((9Z,12Z,15Z)-octadecatrienoic) acid]	less efficacious	159% and 177% and 241% and 105% and 288% and 273%	99% and 105%	63% and 90%	62% and 65% and 86%	103% and 104%	79% and 81%	–	–	mAC9 activity (%);(100% = Gsα stimulation) stimulated by 300nM Gsα ([7]; 3 µM fatty acid): 144% and 110% and 75%; mAC9 activity (%);(100% = Gsα stimulation) stimulated by 300nM Gsα ([7]; 6 µM fatty acid): 125% and 149% and 124% and 119% and 96%
CCCCCCCC/C=C\CCCCCCCC(=O)OC(CO)CO [2-Oleoylglycerol]	–	72%	–	–	–	–	96%	93%	131%	–
CCCCCCCCCCCCCCCC(=O)O [Palmitic acid, Palmitic (hexadecanoic) acid]	less efficacious	279% and 263% and 138% and 341% and 182% and 165% and 224% and 164% and 153% and 126% and 243%	108% and 97%	93% and 87% and 105%	76% and 92% and 77% and 101%	91% and 114% and 61% and 106%	123% and 77% and 97%	106% and 127% and 193% and 124%	–	Effect of lipid on 300 nM Gsα-stimulated mAC3 ([1]; listed as palmitic acid): twofold; EC50 [1, 9]: 6.4 µM; mAC3 activity [%] (100% = 300nM Gsα stimulation) ([1]; fatty acid 0.5 µM): 100%; mAC3 activity [%] (100% = 300nM Gsα stimulation) ([1]; fatty acid 1 µM): 166% and 108% and 118% (2×) and 87% and 83% and 122%; mAC3 activity [%] (100% = 300nM Gsα stimulation) ([1]; fatty acid 3 µM): 122% and 126% and 125% and 136% and 114% and 107% and 116%; mAC3 activity [%] (100% = 300nM Gsα stimulation) ([1]; fatty acid 6 µM): 107% and 145% and 118% and 129% and 73% and 158% and 259%; mAC3 activity [%] (100% = 300nM Gsα stimulation) ([1]; fatty acid 10 µM): 188% and 338% and 172% and 339% and 112% and 94% and 165% and 197% and 126% and 128% and 237%; mAC5 activity [%] (100% = 300nM Gsα stimulation) ([6]; fatty acid 0.5 µM, individual experiments): 100%; mAC5 activity [%] (100% = 300nM Gsα stimulation) ([6]; fatty acid 1 µM, individual experiments): 71% and 83% and 111%; mAC5 activity [%] (100% = 300nM Gsα stimulation) ([6]; fatty acid 3 µM, individual experiments): 66% and 80% and 162%; mAC5 activity [%] (100% = 300nM Gsα stimulation) ([6]; fatty acid 6 µM, individual experiments): 50% and 108% and 125%; mAC5 activity [%] (100% = 300nM Gsα stimulation) ([6]; fatty acid 10 µM, individual experiments): 57% and 89% and 94% and 103%; mAC5 activity [%] (100% = 300nM Gsα stimulation) ([6]; fatty acid 20 µM, individual experiments): 123% (2×) and 77% and 97%; mAC9 activity (%);(100% = Gsα stimulation) stimulated by 300nM Gsα ([7]; 10 µM fatty acid): 258% and 146% and 141% and 173% and 189% and 161% and 157%; mAC9 activity (%);(100% = Gsα stimulation) stimulated by 300nM Gsα ([7]; 20 µM fatty acid): 184%; EC50 [7]: 8.6 µM
O=C(O)CCCCCCCCCCCCCCCCCCC(=O)O [Octadecane-(COOH)2, 1,18-Octadecanedicarboxylic acid]	–	104% and 106% and 66%	101% and 81% and 91%	88% and 87% and 108%	91% and 73%	83% and 136% and 76%	102% and 118% and 78%	81% and 97%	102% and 67%	–
Triolein	–	96%	–	–	–	–	95%	83%	107%	–
CCCCCCCC/C=C/CCCCCCCC(=O)O [Elaidic acid, Elaidic ((9E)-octadecenoic) acid]	efficient enhancers	437% and 276% and 279% and 778% and 673%	131%	72% and 100%	130% and 156% and 151%	101% and 97%	–	–	–	EC50 [8, 9]: 9.7 µM; activity at 0.3 µM ([8]; read-out: mAC7 activity (%);(100% = Gsα stimulation) stimulated by 300nM Gsα, Elaidic acid 0.3 µM): 100%; mAC9 activity (%);(100% = Gsα stimulation) stimulated by 300nM Gsα ([7]; 3 µM fatty acid): 154% and 261% and 166% and 178%; mAC9 activity (%);(100% = Gsα stimulation) stimulated by 300nM Gsα ([7]; 6 µM fatty acid): 346% and 329% and 316% and 303% and 243%; EC50 [7]: 5 µM
CC/C=C\C/C=C\C/C=C\C/C=C\C/C=C\CCCC(=O)O [EPA, Eicosapentaenoic ((5Z,8Z,11Z,14Z,17Z)-eicosapentaenoic) acid]	less efficacious	169% and 200% and 266% and 160%	102% and 159%	99% and 107% and 86% and 87%	–	112% and 108%	101% and 83%	113% and 166%	–	Effect of lipid on 300 nM Gsα-stimulated mAC1 ([3]; 20 µM, in words): no effect; Effect of lipid on 300 nM Gsα-stimulated mAC4 ([4]; 20 µM, in words): no effect

— paper PMC11606603, “The membrane domains of mammalian adenylyl cyclases are lipid receptors” (eLife, 2024)
